The text below walks through data of patent US7544666B2, “NAP derivatives” (Industrial Technology Research Institute, priority 2005, dated 2009).

In one series the test system is PC12 cells. As to the kind of experiment: Neural protection in H2O2/PC12 cell system (MTT). The following applies: 500 μM H2O2-induced PC12 cytotoxicity. In kind it is cell-based. Here is the method: The neural protection of NAP and the NAP derivatives prepared in EXAMPLE 1 were measured by H2O2/PC12 cell system. PC12 cells (4×10^4 cells) were seeded into a 96-well plate and incubated for 24 hours. NAP and the NAP derivatives prepared in EXAMPLE 1 at different concentration were added into the plate and incubated at 37° C. for 4 hours. Hydrogen peroxide with a concentration of 500 μM was then added to induce cytotoxicity. After 24 hours, supernatants were discarded and MTT [3-(4,5-dimethylthiazol-2-yl)-2,5-diphenyltetrazolium bromide] solution (0.5 mg/ml) was added for 4-hour reaction at 37° C. One hundred and fifty μl of DMSO was added to solve formazan product. Absorbance was measured by Microplate Reader at 570 nm, and cell viability was calculated. […] FIGS. 3 to 8 show the cell protection of the NAP derivatives from H2O2-induced PC12 cytotoxicity.

Series [1] in a line: Pharmacokinetics after single subcutaneous dose in rats. Type of series: in vivo. The following applies: rat, 1 mg/kg subcutaneous. The method, then:
A single dosage of NAP and the NAP derivative of BMEC-NAP0706 were subcutaneously administered to rats respectively, and blood samples were obtained at different time intervals. The blood samples were subjected to LC-MS/MS analysis to measure the concentration of NAP and the NAP derivative. A time-plasma concentration relationship was established and pharmacokinetic parameters were calculated. The procedures are described below.
Long Evans rats with body weight between 220 to 240 g were obtained from the National Laboratory Animal Center, Taiwan and caged in the laboratory animal housing in the Industrial Technology Research Institute, Taiwan. The Breeding procedure follows the “Guide for the Care and Use of Laboratory Animals” established by the Chinese Society of Laboratory Animal Sciences. The rats were kept on an alternating 12-hour light and 12-hour dark schedule with sufficient feed and water until they reached the body weight between 280 to 300 g.
Each rat was weighed before the pharmacokinetic examination to estimate its own dosage. The tested drug dissolved in PBS was formulated to achieve the amount of one dosage between 0.28 to 0.32 mL. Each rat was subcutaneously administered with 1 mg/kg of the tested drug. 0.3 mL of blood samples were collected from the saphenous vein in medial thigh of the rat before and 0.25-, 0.5-, 0.75-, 1-, 2-, 4-, 24-hour after administration. Whole blood was centrifuged under 3500 rpm for 10 min and supernatant (serum) was moved to a clean 1.5 mL eppendorf and stored at −80° C.
Sample pretreatment was as follows: The frozen serum was thawed in an ice bath. One hundred μL of the serum was moved to a clean 1.5 mL eppendorf and 10 μL of internal standard material was added. The mixture was added with 200 μL ACN and mixed again. The sample was centrifuged under 14000 rpm at 4° C. for 10 min, and the supernatant was moved to the other clean eppendorf and dried in a vacuum system at 60° C. for 30 min. The dried sample was dissolved in 900 μL ddH2O. The sample was added to a solid phase extraction column previously activated with methanol and ddH2O. After the sample passed through, the extraction column was washed with ddH2O alone and then ddH2O containing 5% ACN and 0.1% TFA. The sample was dissolved from the extraction column with ACN containing 0.1% TFA and dried under a vacuum system at 60° C. for 1 hour. The dried sample was redissolved with 100 μL of ddH2O containing 50% ACN. The sample was analyzed with HPLC-MS/MS system.
The sample analysis was as described below. 20 μL of the sample was poured into the HPLC-MS/MS system. The solvent system was applied in gradient partitioning: 90% A (H2O/ACN=98/2, 0.1% F.A.) and 10% B (H2O/ACN=20/80, 0.1% F.A.) at 0-3 min; 10% A and 90% B at 3-6.5 min; 90% A and 10% B again at 6.5-15 min. The flow rate was 0.2 mL/min. The column was ZORBAX C18, 5 μm, 2.1×50 mm (Agilent) and the detector was ABI 4000 Q Trap. Each sample was analyzed for 15 min. The results were compared with the standard calibration curve to estimate the concentration of each sample. All data was statistically analyzed with Excel or WinNonlin.

Series [2] in a line: Stability in Hanks' balanced salt solution (HBSS). Type of series: physicochemical. The following applies: 37° C., relative to initial conc. in HBSS = 100.00. An outline of the steps: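 Compounds at 500 μM initial concentration were incubated 4 h at 37 °C in HBSS alone or on the apical side of Caco-2 monolayers (cultured 18–26 days, TEER over 350 Ω×cm^2). Apical and basolateral levels were quantified by reverse-phase HPLC at 210 nm against the initial concentration.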

For the compound `CC[C@H](C)[C@H](NC(=O)[C@H](CO)NC(=O)[C@@H](NC(=O)[C@@H]1CCCN1C(=O)[C@H](C)NC(=O)[C@@H](N)CC(N)=O)C(C)C)C(=O)N1CCC[C@H]1C(=O)N[C@@H](CCC(N)=O)C(=O)O` [BMEC-NAP, H-NAPVSIPQ-OH, reference compound], the “concentration level at which cell viability was increased” value in the series with PC12 cells is given as “picomolar (i.e. 10^−12) level”. Moreover, the “concentration level of cell protection effect” value with PC12 cells (4 h pre-incubation) is reported as “femtomolar (i.e. 10^−15) level”. For the same compound, in series [1] (in vivo, sc), the exposure (AUC) turned out to be 55.8 ng·h/mL, the maximum concentration (Cmax) amounted to 55.5 ng/mL and the Tmax was 15 min. The half-life in series [1] (in vivo, sc, read-out: T½ (converted)) is 51 min. Besides, in series [1], the TNAP-max is 0.25 h and the “time required to reach the highest concentration” value was found to be 0.25 h. The “Conc. after 4-hour in HBSS” value in series [2] is on record as 99.21.
